For one compound, IL-2 secretion results are on record in US20240327493A1 (GEORGE MASON UNIVERSITY, priority 2023, published 2024).

The test deals with human PBMCs co-cultured with OVCAR8 cells. Nature of the test: Co-culture of OVCAR8 cells and stimulated human PBMCs, 10:1 OVCAR8:PBMC ratio. The conditions noted are these: MN1.4 450, 100 or 10 μM, 24 hours, FIG. 10A. The class given is cell-based. The protocol:
For this model, PBMCs and cancer cells were both stimulated prior to co-culture to promote expression of PD-1 and PD-L1, respectively.
Stimulation of the PBMCs causes them to release inflammatory cytokines including IL-2 and TNFα,
OVCAR8 cells, generously provided by the Gottesman Lab (National Institutes of Health, Bethesda, MD, USA), and MDA-MB-231 cells (American Type Culture Collection, Rockville, MD, USA) were cultured in Gibco RPMI 1640 media (ThermoFisher Scientific, Cat. No. 11-875-093) supplemented with 10% Gibco fetal bovine serum (ThermoFisher Scientific, Cat. No. 10437028), and 1% penicillin/streptomycin (10,000 U/mL pen, 10 mg/mL strcp) from MilliporeSigma (Burlington, MA, USA, Cat. No. P4333). Cells were cultured at 37° C. and 5% CO2. […]
For co-culture experiments with excess OVCAR8 ratios, OVCAR8 cells were seeded at a density of 2×10^5 cells/mL on a 6-well plate and allowed to adhere overnight. […] On Day 3, concentrations of PBMCs and OVCAR8 cells (harvested from a control well) were measured using the QuadCount Automated Cell Counter (Accuris Instruments). The concentration of PBMCs required for a 10:1 OVCAR8:PBMC ratio was calculated from the OVCAR8 concentration. […]
For experiments analyzed via IL-2 PCR-ELISA, the levels of IL-2 in the collected supernatants were measured using the IL-2 Human ProQuantum Immunoassay Kit (ThermoFisher Scientific, Cat. No. A35603). […]

Structures are written as SMILES. Entries after “also recorded” stand apart in the source; their conditions may differ.

Turning to `CC[C@H](C)[C@@H]1NC(=O)[C@H](CCSC)NC(=O)[C@H](C)NC(=O)[C@H](CCCNC(=N)N)NC(=O)[C@@H](N)CSSC[C@@H](C(=O)O)NC(=O)[C@H]([C@@H](C)CC)NC(=O)[C@H](CCCNC(=N)N)N(C)C(=O)[C@H](CCCCN)NC(=O)[C@H](Cc2ccc(O)cc2)NC(=O)[C@H](CC(=O)O)NC(=O)[C@H](C)NC(=O)CNC(=O)CNC(=O)[C@H](Cc2ccc(O)cc2)NC(=O)[C@H](CO)NC1=O` [SEQ ID NO. 5, CRAMISYGGADYKXIC], the IL-2 secretion entry was “secretion of IL-2 reduced in a dose dependent manner”. Besides, the IL-2 secretion result (listed as MN1.4) is reported as “enhanced the suppression of IL-2 secretion by T cells in a dose-dependent manner; also recorded: decreased released IL-2 in a dose dependent manner”.
